Where a name gives a salt, the structure may show the parent alone.
What follows are compounds tested against AaDOP2 (Aedes aegypti, UniProt H6D5H2) (assay: AaDOP2 antagonist screen of the LOPAC1280 library (HEK-CRELuc-Aadop2 cells, luminescence)). Conditions: not given.
Format: cell-based

Sequence of AaDOP2 (H6D5H2 1-476): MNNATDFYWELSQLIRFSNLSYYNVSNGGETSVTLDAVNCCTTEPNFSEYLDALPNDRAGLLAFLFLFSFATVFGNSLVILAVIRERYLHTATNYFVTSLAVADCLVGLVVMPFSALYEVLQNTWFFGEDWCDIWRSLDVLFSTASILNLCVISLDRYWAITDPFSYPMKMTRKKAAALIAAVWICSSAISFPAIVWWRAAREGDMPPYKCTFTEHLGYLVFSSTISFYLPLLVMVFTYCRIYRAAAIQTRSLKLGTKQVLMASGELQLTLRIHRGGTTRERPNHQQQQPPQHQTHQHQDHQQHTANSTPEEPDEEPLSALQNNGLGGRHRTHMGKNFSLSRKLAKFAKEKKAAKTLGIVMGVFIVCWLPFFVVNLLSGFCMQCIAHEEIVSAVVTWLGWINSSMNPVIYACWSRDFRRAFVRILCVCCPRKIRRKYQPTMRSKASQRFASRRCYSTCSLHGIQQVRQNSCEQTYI

In order of rising “Compound effect (percent receptor signaling in presence of test compound, relative lux units relative to the SCH23390 control)” value:
1. O=C1C(SCCO)=C(SCCO)C(=O)c2ccccc21 [Compound 631, NSC 95397]  17
2. CC(=O)[C@]1(O)Cc2c(O)c3c(c(O)c2[C@@H](O[C@H]2C[C@H](N)[C@H](O)[C@H](C)O2)C1)C(=O)c1ccccc1C3=O [Compound 636, Idarubicin]  17
3. CC1CNCCN1S(=O)(=O)c1cccc2cnccc12.Cl.Cl (centres unmarked) [Compound 653, 1-(5-Isoquinolinylsulfonyl)-2-methylpiperazine dihydrochloride]  29
4. CN[C@@H]1C[C@@H](c2ccc(Cl)c(Cl)c2)c2ccccc21 [Compound 669, Indatraline hydrochloride]  54
5. O=S(=O)(c1cccc2cnccc12)N1CCNCC1 [Compound 634, HA-100]  71
6. NC(=O)CI [Compound 633, Iodoacetamide]  84
7. O=S(=O)(c1cccc2c(I)cccc12)N1CCCNCC1 [Compound 641, ML-7]  85
8. CC(C)NC(C)Cc1ccc(I)cc1 (centres unmarked) [Compound 670, Iofetamine hydrochloride]  90
9. O=C1CCC(c2ccc(-n3ccnc3)cc2)=NN1 [Compound 632, Imazodan]  92
10. CCCC(=O)NCCc1c2n(c3ccc(OC)cc13)Cc1ccccc1-2 [Compound 647, IIK7]  96
11. CCn1ccnc1CC1COc2ccccc2O1 (centres unmarked) [Compound 663, Imiloxan hydrochloride]  96
12. Br.C[N+](C)(C)CCCCCNCC12CC3CC(CC(C3)C1)C2.[Br-] [Compound 627, IEM-1460]  97
13. CN(C(=O)Cc1ccc(Cl)c(Cl)c1)C(CN1CCCC1)c1cccc(OCC(=O)O)c1.Cl (centres unmarked) [Compound 671, ICI 204,448 hydrochloride]  97
14. CC1CN(S(=O)(=O)c2cccc3cnccc23)CCN1.Cl.Cl (centres unmarked) [Compound 651, 1-(5-Isoquinolinylsulfonyl)-3-methylpiperazine dihydrochloride]  100
15. COc1ccc2c(c1)c(CC(=O)O)c(C)n2C(=O)c1ccc(Cl)cc1 [Compound 654, Indomethacin]  100
16. N[C@@H](Cc1ccc(O)c(I)c1)C(=O)O [Compound 660, 3-Iodo-L-tyrosine]  100
17. C[C@@]1(C2CCCC2)Cc2cc(OCC(=O)O)c(Cl)c(Cl)c2C1=O [Compound 668, R(+)-IAA-94]  100
18. CC(=N)NCCCC[C@H](N)C(=O)O.Cl [Compound 659, L-N6-(1-Iminoethyl)lysine hydrochloride]  101
19. CC[C@H](C)[C@H]1O[C@]2(CC[C@@H]1C)C[C@@H]1C[C@@H](C/C=C(\C)[C@@H](O[C@H]3C[C@H](OC)[C@@H](O[C@H]4C[C@H](OC)[C@@H](O)[C@H](C)O4)[C@H](C)O3)[C@@H](C)/C=C/C=C3\CO[C@@H]4[C@H](O)C(C)=C[C@@H](C(=O)O1)[C@]34O)O2 [Compound 662, Ivermectin]  101
20. Cc1cc(C)c(NC(=O)C[C@H](CC(=O)O)c2cccc3ccccc23)c(C(=O)N2CCC3(CCCC3)CC2)c1 [Compound 664, CR 2945]  101
21. CC(=N)NCCC[C@H](N)C(=O)O.Cl [Compound 661, L-N5-(1-Iminoethyl)ornithine hydrochloride]  102
22. CC(C)Cc1ccc([C@H](C)C(=O)O)cc1 [Compound 666, S(+)-Ibuprofen]  102
23. c1ccc2c(c1)OCC(C1=NCCN1)O2 (centres unmarked) [Compound 650, Idazoxan hydrochloride]  103
24. CN([C@@H](Cc1ccc(OS(=O)(=O)c2cccc3cnccc23)cc1)C(=O)N1CCN(c2ccccc2)CC1)S(=O)(=O)c1cccc2cnccc12 [Compound 638, KN-62]  104
25. Nc1nc2[nH]c(=O)cnc2c(=O)[nH]1 [Compound 656, Isoxanthopterin]  106
26. COc1ccc2[nH]c(I)c(CCNC(C)=O)c2c1 [Compound 637, 2-Iodomelatonin]  113
27. CC(C)[N+]1(C)[C@@H]2CC[C@H]1C[C@@H](OC(=O)C(CO)c1ccccc1)C2 (some centres unmarked) [Compound 635, Ipratropium bromide]  118
28. Cl.O=C(O)Cc1c[nH]cn1 [Compound 629, Imidazole-4-acetic acid hydrochloride]  122
29. CC(C)Cn1c(=O)n(C)c(=O)c2[nH]cnc21 [Compound 649, 3-Isobutyl-1-methylxanthine]  129
30. CC(C)C(=O)c1c(C(C)C)nn2ccccc12 [Compound 628, Ibudilast]  136

In the case of `O=C1C(SCCO)=C(SCCO)C(=O)c2ccccc21` [Compound 631, NSC 95397], the “% of the SCH23390 effect (percent inhibition of receptor response relative to the SCH23390 control)” value is reported as 83%.

Same assay, conditions: 10 µM compound, 300 nM dopamine, 2 hr; hit = compound effect <20

In order of falling “Compound effect (percent receptor signaling in presence of test compound, relative lux units relative to the SCH23390 control)” value:
1. CCC(NC(C)C)C(O)c1ccc(O)c(O)c1.CS(=O)(=O)O (centres unmarked) [Compound 644, Isotharine mesylate]  115%
2. CC(C)NNC(=O)c1ccncc1.O=P(O)(O)O [Compound 657, Iproniazid phosphate]  97%
3. NC(N)=NCc1cccc(I)c1.NC(N)=NCc1cccc(I)c1.O=S(=O)(O)O [Compound 665, m-Iodobenzylguanidine hemisulfate]  96%
4. Cl.Clc1cc(I)cc(Cl)c1NC1=NCCN1 [Compound 667, p-Iodoclonidine hydrochloride]  83%
5. CC(C(O)c1ccc(O)cc1)N1CCC(Cc2ccccc2)CC1.CC(C(O)c1ccc(O)cc1)N1CCC(Cc2ccccc2)CC1.O=C(O)C(O)C(O)C(=O)O (centres unmarked) [Compound 643, Ifenprodil tartrate]  64%
6. O=C1Nc2ccccc2/C1=C1/Nc2ccccc2/C1=N\O [Compound 630, Indirubin-3'-oxime]  23%

Same assay, conditions: read-out: % of the SCH23390 effect (percent inhibition of receptor response relative to the SCH23390 control)

`CC(=O)[C@]1(O)Cc2c(O)c3c(c(O)c2[C@@H](O[C@H]2C[C@H](N)[C@H](O)[C@H](C)O2)C1)C(=O)c1ccccc1C3=O` [Compound 636, Idarubicin] was tested, and the inhibition at 10 µM was 83%.
